Data from ChEMBL document CHEMBL1208738, “Optimization of privileged structures for selective and potent melanocortin subtype-4 receptor ligands” (Bioorg Med Chem Lett, 2010).
pEC50, pIC50: −log10 of the molar value.

Tests used:
Melanocortin receptor 3 [1] = molecular target: T1, Melanocortin receptor 3 (Homo sapiens, UniProt P41968); assay: Agonist activity at human MC3 receptor expressed in CHO cells assessed as increase of alpha-MSH-induced cAMP accumulation; assay type: functional, cell-based
T1 sequence (P41968 whole entry): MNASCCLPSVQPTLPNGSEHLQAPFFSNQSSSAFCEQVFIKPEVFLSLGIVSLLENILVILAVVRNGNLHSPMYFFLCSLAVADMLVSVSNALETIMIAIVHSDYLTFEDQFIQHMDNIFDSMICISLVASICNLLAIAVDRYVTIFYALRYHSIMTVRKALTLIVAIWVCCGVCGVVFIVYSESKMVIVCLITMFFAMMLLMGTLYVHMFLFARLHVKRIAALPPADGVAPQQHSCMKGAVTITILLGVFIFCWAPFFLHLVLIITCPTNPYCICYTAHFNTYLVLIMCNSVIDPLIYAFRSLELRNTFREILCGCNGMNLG

Melanocortin receptor 5 [2] = molecular target: T2, Melanocortin receptor 5 (Homo sapiens, UniProt P33032); assay: Displacement of [125I]NDP-alpha-MSH from human MC5 receptor expressed in CHO cells; assay type: cell-based
T2 sequence (P33032 whole entry): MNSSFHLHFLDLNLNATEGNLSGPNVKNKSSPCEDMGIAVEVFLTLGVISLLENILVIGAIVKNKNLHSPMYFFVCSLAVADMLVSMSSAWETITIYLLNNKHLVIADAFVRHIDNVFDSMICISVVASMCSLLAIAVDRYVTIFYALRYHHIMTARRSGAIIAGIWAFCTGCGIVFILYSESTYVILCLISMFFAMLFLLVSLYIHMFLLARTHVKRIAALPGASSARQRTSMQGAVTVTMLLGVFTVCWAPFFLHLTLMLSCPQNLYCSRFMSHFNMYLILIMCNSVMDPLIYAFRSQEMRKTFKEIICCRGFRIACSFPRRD

Melanocortin receptor 5 [3] = molecular target: T2, Melanocortin receptor 5; assay: Agonist activity at human MC5 receptor expressed in CHO cells assessed as increase of alpha-MSH-induced cAMP accumulation; assay type: functional, cell-based
[4] = Oral bioavailability in Sprague-Dawley rat at 4 mg/kg; assay type: ADME, organism-based; conditions: in vivo
[5] = Clearance in Sprague-Dawley rat at 1 mg/kg, iv and 4 mg/kg, po; assay type: ADME, organism-based; conditions: in vivo
[6] = Volume of distribution at steady state in Sprague-Dawley rat at 1 mg/kg, iv and 4 mg/kg, po; assay type: ADME, organism-based; conditions: in vivo, read-out: Vdss
[7] = Half life in Sprague-Dawley rat at 1 mg/kg, iv and 4 mg/kg, po; assay type: ADME, organism-based; conditions: in vivo
Melanocortin receptor 4 [8] = molecular target: T3, Melanocortin receptor 4 (Homo sapiens, UniProt P32245); assay: Displacement of [125I]NDP-alpha-MSH from human MC4 receptor expressed in CHO cells; assay type: cell-based
T3 sequence (P32245 whole entry): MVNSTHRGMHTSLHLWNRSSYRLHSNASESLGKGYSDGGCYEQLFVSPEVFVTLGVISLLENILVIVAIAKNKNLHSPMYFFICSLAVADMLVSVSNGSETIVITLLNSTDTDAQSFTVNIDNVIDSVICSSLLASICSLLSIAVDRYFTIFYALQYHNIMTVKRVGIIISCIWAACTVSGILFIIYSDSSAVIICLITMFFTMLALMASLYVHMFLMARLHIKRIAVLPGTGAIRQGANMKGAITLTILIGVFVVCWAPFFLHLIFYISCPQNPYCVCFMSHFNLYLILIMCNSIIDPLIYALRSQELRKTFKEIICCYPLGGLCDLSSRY

Melanocortin receptor 4 [9] = molecular target: T3, Melanocortin receptor 4; assay: Agonist activity at human MC4 receptor expressed in CHO cells assessed as increase of alpha-MSH-induced cAMP accumulation; assay type: functional, cell-based
[10] = molecular target: T4, Melanocyte-stimulating hormone receptor (Homo sapiens, UniProt Q01726); assay: Displacement of [125I]NDP-alpha-MSH from human MC1 receptor expressed in CHO cells; assay type: cell-based
Target sequence in this assay (Q01726 whole entry): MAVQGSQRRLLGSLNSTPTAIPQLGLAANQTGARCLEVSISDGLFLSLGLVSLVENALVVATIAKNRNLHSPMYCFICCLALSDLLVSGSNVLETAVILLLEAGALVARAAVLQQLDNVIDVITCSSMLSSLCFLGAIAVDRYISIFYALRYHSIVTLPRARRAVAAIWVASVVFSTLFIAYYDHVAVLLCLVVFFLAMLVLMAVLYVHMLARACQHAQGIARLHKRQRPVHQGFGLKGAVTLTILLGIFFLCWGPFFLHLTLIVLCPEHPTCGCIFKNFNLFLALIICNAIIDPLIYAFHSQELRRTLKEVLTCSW

[11] = molecular target: T4, Melanocyte-stimulating hormone receptor; assay: Agonist activity at human MC1 receptor expressed in CHO cells assessed as increase of alpha-MSH-induced cAMP accumulation; assay type: functional, cell-based
Target sequence in this assay (Q01726 whole entry): as above

Melanocortin receptor 3 [12] = molecular target: T1, Melanocortin receptor 3; assay: Displacement of [125I]NDP-alpha-MSH from human MC3 receptor expressed in CHO cells; assay type: cell-based
Melanocortin receptor 4 [13] = molecular target: T3, Melanocortin receptor 4; assay: Agonist activity at human MC4 receptor expressed in CHO cells assessed as increase of alpha-MSH-induced cAMP accumulation at 10 uM relative to alpha-MSH; assay type: functional, cell-based
Melanocortin receptor 3 [14] = molecular target: T1, Melanocortin receptor 3; assay: Agonist activity at human MC3 receptor expressed in CHO cells assessed as increase of alpha-MSH-induced cAMP accumulation at 10 uM relative to alpha-MSH; assay type: functional, cell-based
Melanocortin receptor 5 [15] = molecular target: T2, Melanocortin receptor 5; assay: Agonist activity at human MC5 receptor expressed in CHO cells assessed as increase of alpha-MSH-induced cAMP accumulation at 10 uM relative to alpha-MSH; assay type: functional, cell-based
Homo sapiens [16] = organism: Homo sapiens; assay: Selectivity ratio of IC50 for human MC1 receptor to IC50 for human MC4 receptor
Homo sapiens [17] = organism: Homo sapiens; assay: Selectivity ratio of EC50 for human MC1 receptor to EC50 for human MC4 receptor
Homo sapiens [18] = organism: Homo sapiens; assay: Selectivity ratio of IC50 for human MC5 receptor to IC50 for human MC4 receptor
Homo sapiens [19] = organism: Homo sapiens; assay: Selectivity ratio of EC50 for human MC5 receptor to EC50 for human MC4 receptor
[20] = molecular target: T4, Melanocyte-stimulating hormone receptor; assay: Agonist activity at human MC1 receptor expressed in CHO cells assessed as increase of alpha-MSH-induced cAMP accumulation at 10 uM relative to alpha-MSH; assay type: functional, cell-based
Target sequence in this assay (Q01726 whole entry, looked up): as the sequence (Q01726 whole entry) above

SMILES | pEC50 (Melanocortin receptor 3 [1]) | pIC50 (Melanocortin receptor 5 [2]) | pEC50 (Melanocortin receptor 5 [3]) | bioavailability [4] [%] | clearance [5] [mL/min/kg] | Vd [6] [L/kg] | half-life [7] [h] | pIC50 (Melanocortin receptor 4 [8]) | pEC50 (Melanocortin receptor 4 [9]) | pIC50 [10] | pEC50 [11] | pIC50 (Melanocortin receptor 3 [12]) | Activity (Melanocortin receptor 4 [13]) [%] | Activity (Melanocortin receptor 3 [14]) [%] | Activity (Melanocortin receptor 5 [15]) [%] | Ratio IC50 (Homo sapiens [16]) | Ratio EC50 (Homo sapiens [17]) | Ratio IC50 (Homo sapiens [18]) | Ratio EC50 (Homo sapiens [19]) | Activity [20] [%]
CC(C)N(CC(C1CCCCC1)N1CCN(C(=O)[C@@H]2CN(C(C)(C)C)C[C@H]2c2ccc(F)cc2F)CC1)C(=O)c1ncccn1 (single isomer, unassigned; diastereomer 1) |  |  |  | 26 | 31 | 3.8 | 1.8 | 7.46 | 8.00 |  |  |  |  |  |  |  |  |  |  | 
CC(=O)N(CC(C1CCCCC1)N1CCN(C(=O)[C@@H]2CN(C(C)(C)C)C[C@H]2c2ccc(F)cc2F)CC1)C(C)C (stereo in doubt; 19B) [listing 2 of 2 here] |  |  |  |  |  |  |  |  |  |  |  |  | 123 | 81 | 64 | 20 | 20 | 20 | 20 | 61
CC(C)CC(CN(C(C)C)S(C)(=O)=O)N1CCN(C(=O)[C@@H]2CN(C(C)(C)C)C[C@H]2c2ccc(F)cc2F)CC1 (single isomer, unassigned; diastereomer 2) |  |  |  |  |  |  |  |  |  |  |  |  | 100 | 87 | 76 | 20 | 20 | 20 | 20 | 62

The next lines start with the values.

pEC50 (Melanocortin receptor 3 [1]) | pIC50 (Melanocortin receptor 5 [2]) | pEC50 (Melanocortin receptor 5 [3]) | bioavailability [4] [%] | clearance [5] [mL/min/kg] | Vd [6] [L/kg] | half-life [7] [h] | pIC50 (Melanocortin receptor 4 [8]) | pEC50 (Melanocortin receptor 4 [9]) | pIC50 [10] | pEC50 [11] | pIC50 (Melanocortin receptor 3 [12]) | Activity (Melanocortin receptor 4 [13]) [%] | Activity (Melanocortin receptor 3 [14]) [%] | Activity (Melanocortin receptor 5 [15]) [%] | Ratio IC50 (Homo sapiens [16]) | Ratio EC50 (Homo sapiens [17]) | Ratio IC50 (Homo sapiens [18]) | Ratio EC50 (Homo sapiens [19]) | Activity [20] [%] | SMILES
5.74 | 6.60 | < 5.30 | 21 | 25 | 6 | 2.7 | 7.89 | 7.89 | 6.00 | 6.27 | 5.44 |  |  |  |  |  |  |  |  | CC(C)N(CC(C1CCCCC1)N1CCN(C(=O)[C@@H]2CN(C(C)(C)C)C[C@H]2c2ccc(F)cc2F)CC1)S(C)(=O)=O (single isomer, unassigned; diastereomer 2)
5.70 | 6.18 | 5.55 | 12 | 42 | 6.8 | 2.2 | 7.55 | 7.60 | 5.74 | 6.05 | 5.19 |  |  |  |  |  |  |  |  | CC(=O)N(CC(C1CCCCC1)N1CCN(C(=O)[C@@H]2CN(C(C)(C)C)C[C@H]2c2ccc(F)cc2F)CC1)C(C)C (stereo in doubt; 19B) [listing 1 of 2 here]
 |  |  | 22 | 7.3 | 19 | 34 | 6.59 | 6.24 |  |  |  | 101 |  |  |  |  |  |  |  | CCN(CC)CC(C1CCCCC1)N1CCN(C(=O)[C@@H]2CN(C(C)(C)C)C[C@H]2c2ccc(F)cc2F)CC1 (stereo partly drawn)
